US6924278B2, “Aroyl-piperazine derivatives, their preparation and their use as tachykinin antagonists” (Fujisawa Pharmaceutical Co., Ltd., priority 1997, dated 2005)
Structures can show the parent of a compound that is named as a salt.

How the values were obtained:
h-NK1 receptors = biological target: T1, h-NK1 receptors (Homo sapiens, UniProt P25103); assay: Evaluation of NK1 antagonist transport efficiency to the central nervous system using a h-NK1 receptor binding assay (brain extract after i.v. dosing of rats); conditions: 5 min; compound extracted from brain of male SD rats 5 min after i.v. injection at the dose of 1 mg/kg; CHO cell membranes expressing h-NK1; read-out: inhibition rate of 125I-BH-Substance P binding to h-NK1 receptors
T1 construct: expressed in transfected cells; host or cells: CHO cells (permanent expression), crude cell membranes
Protocol: A. Evaluation of NK1 Antagonist Transport Efficiency to the Cental Nervous System using a h-NK1 Receptor Binding Assay
(1) Administration of Test Compound and Extraction of the Compound from Brain
Male SD rats were given an i.v. injection of a solution containing a test compound (1 mg/kg). 5 Min later the animals were anesthetized by ether, bled and perfused through the aorta ascendens with 20 ml of saline. The brain was rapidly removed, weighed and homogenized in 4 vol. ice-cold distilled water by using Polytoron (KINEMATICA). To extract the test compound, 500 μl of the homogenate, 100 μl of methanol, 500 μl of 0.1 N NaOH and 4 ml of ethyl acetate were mixed by shaking for 10 min at room temperature. The organic phase (2.5 ml) was recovered by centrifugation at 3,000 rpm for 10 min, dried and dissolved in dimethyl sulfoxide.
(2) h-NK1 Receptor Binding Assay
(a) Crude CHO Cell Membrane Preparation
CHO cells permanently expressing h-NK1 receptors were harvested and homogenized with a Dounce homogenizer at 4° C. in a buffer (0.25 M sucrose, 25 mM Tris-HCl (pH 7.4), 10 mM MgCl2, 1 mM EDTA, 5 μg/ml p-APMSF). The homogenate was centrifuged (500×g, 10 min), and the pellet was resuspended in the same buffer, homogenized, and centrifuged. The two supernatants were combined and centrifuged (100,000×g, 1 hour). The crude cell membranes thus isolated were resuspended in a buffer (25 mM Tris-HCl (pH 7.4), 10 mM MgCl2, 1 mM. EDTA, 5 μg/ml p-APMSF) and stored at −80° C. until use.
(b) ^125I-BH-Substance P Binding to the Prepared Membrane
Cell membranes (6 μg/ml) were incubated with ^125I-BH-Substance P (0.1 nM) with or without the extracted compounds in 0.25 ml of a medium (50 mM Tris-HCl (pH 7.4), 5 mM MnCl2, 20 μg/ml chymostatin, 40 μg/ml bacitracin, 4 μg/ml leupeptin, 5 μg/ml p-APMSF, 200 μg/ml BSA) at 22° C. for 90 min. At the end of the incubation period, the contents were quickly filtered through a Blue Mat 11740 filter (pretreated with 0.1% polyethylenimine for 3 hours prior to use) by using SKATRON Cell Harvester. The filter was then washed with a washing buffer (50 mM Tris-HCl (pH 7.4), 5 mM MnCl2). The radioactivity was counted by using an auto gamma counter (Packard RIASTAR 5420A). All data presented are specific binding defined as that displaceable by 3 μM unlabeled Substance P.

T1 sequence (P25103 whole entry): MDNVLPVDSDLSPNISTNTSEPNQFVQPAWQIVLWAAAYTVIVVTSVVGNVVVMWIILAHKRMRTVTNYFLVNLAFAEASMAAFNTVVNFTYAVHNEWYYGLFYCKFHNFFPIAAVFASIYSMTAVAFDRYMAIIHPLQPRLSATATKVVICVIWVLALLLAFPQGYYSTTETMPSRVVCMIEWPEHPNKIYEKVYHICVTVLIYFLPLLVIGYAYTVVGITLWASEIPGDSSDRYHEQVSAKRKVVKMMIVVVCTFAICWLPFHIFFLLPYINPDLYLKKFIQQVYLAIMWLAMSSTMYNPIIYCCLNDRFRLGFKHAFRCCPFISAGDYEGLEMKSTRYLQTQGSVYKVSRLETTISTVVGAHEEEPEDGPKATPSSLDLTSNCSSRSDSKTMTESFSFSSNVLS

Structure (SMILES)	inhibition at 1 mg/kg (h-NK1 receptors) [%]	melting point [°C]
Cc1ccc(C[C@@H]2CN(CCCN3CCOCC3(C)C)CCN2C(=O)c2cc(C(F)(F)F)cc(C(F)(F)F)c2)cc1C.Cl.Cl [78-(4), (2R)-1-[3,5-Bis(trifluoromethyl)benzoyl]-2-(3,4-dimethylbenzyl)-4-[3-(3,3-dimethylmorpholino)propyl]piperazine dihydrochloride]	> 80	197
CC1(C)COCCN1CCN1CCN(C(=O)c2cc(C(F)(F)F)cc(C(F)(F)F)c2)[C@H](Cc2c[nH]c3ccccc23)C1.Cl.Cl [79-(1), (2R)-1-[3,5-Bis(trifluoromethyl)benzoyl]-4-[2-(3,3-dimethylmorpholino)ethyl]-2-[(1H-indol-3-yl)methyl]piperazine dihydrochloride]	> 80	247 to 258
Cc1ccc(C[C@@H]2CN(CCN3CCOCC3(C)C)CCN2C(=O)c2cc(C(F)(F)F)cc(C(F)(F)F)c2)cc1C.Cl.Cl [79-(2), (2R)-1-[3,5-Bis(trifluoromethyl)benzoyl]-2-(3,4-dimethylbenzyl)-4-[2-(3,3-dimethylmorpholino)ethyl]piperazine dihydrochloride]	> 80	190 to 210
COC[C@H]1COCCN1CCN1CCN(C(=O)c2cc(C(F)(F)F)cc(C(F)(F)F)c2)[C@H](Cc2ccc(C)c(C)c2)C1.Cl.Cl [80-(4), (2R)-1-[3,5-Bis(trifluoromethyl)benzoyl]-2-(3,4-dimethylbenzyl)-4-[2-((3S)-3-methoxymethylmorpholino)ethyl]piperazine dihydrochloride]	> 80	90 to 100
COC[C@H]1COCCN1CCCN1CCN(C(=O)c2cc(C(F)(F)F)cc(C(F)(F)F)c2)[C@H](Cc2ccc(C)c(C)c2)C1.Cl.Cl [80-(6), (2R)-1-[3,5-Bis(trifluoromethyl)benzoyl]-2-(3,4-dimethylbenzyl)-4-[3-((3S)-3-methoxymethylmorpholino)propyl]piperazine dihydrochloride]	> 80	55 to 60
COCC1CN(CCCN2CCN(C(=O)c3cc(C(F)(F)F)cc(C(F)(F)F)c3)[C@H](Cc3ccc(C)c(C)c3)C2)CCO1.Cl (stereo partly drawn) [80-(7), (2R)-1-[3,5-Bis(trifluoromethyl)benzoyl]-2-(3,4-dimethylbenzyl)-4-[3-(2-methoxymethylmorpholino)propyl]piperazine hydrochloride]	> 80	145 to 155
Cc1ccc(C[C@@H]2CN(CCN3CCOC[C@@H]3CF)CCN2C(=O)c2cc(C(F)(F)F)cc(C(F)(F)F)c2)cc1C.Cl.Cl [81-(1), (2R)-1-[3,5-Bis(trifluoromethyl)benzoyl]-2-(3,4-dimethylbenzyl)-4-[2-((3R)-3-fluoromethylmorpholino)ethyl]piperazine dihydrochloride]	> 80	145 to 155
COCC1(C)COCCN1CCN1CCN(C(=O)c2cc(C(F)(F)F)cc(C(F)(F)F)c2)[C@H](Cc2ccc(C)c(C)c2)C1.Cl.Cl (stereo partly drawn) [81-(2), (2R)-1-[3,5-Bis(trifluoromethyl)benzoyl]-2-(3,4-dimethylbenzyl)-4-[2-(3-methoxymethyl-3-methylmorpholino)ethyl]piperazine dihydrochloride]	> 80	60 to 70
CCOC[C@H]1COCCN1CCN1CCN(C(=O)c2cc(C(F)(F)F)cc(C(F)(F)F)c2)[C@H](Cc2ccc(C)c(C)c2)C1.Cl.Cl [81-(3), (2R)-1-[3,5-Bis(trifluoromethyl)benzoyl]-2-(3,4-dimethylbenzyl)-4-[2-((3S)-3-ethoxymethylmorpholino)ethyl]piperazine dihydrochloride]	> 80	60 to 65
CC1(C)COCCN1CC#CCN1CCN(C(=O)c2cc(C(F)(F)F)cc(C(F)(F)F)c2)C(Cc2ccc3c(c2)OCO3)C1 (stereo not drawn) [Example 84, 1-[3,5-bis-(trifluoromethyl)benzoyl]-4-[4-(3,3-dimethylmorpholino)-2-butynyl]-2-(3,4-methylenedioxybenzyl)piperazine dihydrochloride]	> 80	–

Results, then the compound that gave them:

inhibition at 1 mg/kg (h-NK1 receptors) [%]	melting point [°C]	Structure (SMILES)
> 80	170 to 174	Cc1ccc(C[C@@H]2CN(C/C=C/c3cccnc3)CCN2C(=O)c2cc(C(F)(F)F)cc(C(F)(F)F)c2)cc1C.Cl.Cl [6-(1), (2R)-1-[3,5-Bis(trifluoromethyl)benzoyl]-2-(3,4-dimethylbenzyl)-4-[(E)-3-(3-pyridyl)-2-propenyl]piperazine dihydrochloride]
> 80	> 230	Cc1ccc(C[C@@H]2CN(C/C=C/CN3CCOCC3)CCN2C(=O)c2cc(Cl)cc(Cl)c2)cc1C.Cl.Cl [16-(2), (2R)-1-(3,5-Dichlorobenzoyl)-2-(3,4-dimethylbenzyl)-4-[(E)-4-morpholino-2-butenyl]piperazine dihydrochloride]
> 80	195 to 203	Cl.Cl.O=C(c1cc(C(F)(F)F)cc(C(F)(F)F)c1)N1CCN(C/C=C/c2cccnc2)C[C@H]1Cc1c[nH]c2ccccc12 [56-(2), (2R)-1-[3,5-Bis(trifluoromethyl)benzoyl]-2-[(1H-indol-3-yl)methyl]-4-[(2E)-3-(3-pyridyl)-2-propenyl]piperazine dihydrochloride]
> 80	155 to 160	COCC1(C)COCCN1CC#CCN1CCN(C(=O)c2cc(C(F)(F)F)cc(C(F)(F)F)c2)[C@H](Cc2ccc(C)c(C)c2)C1.Cl.Cl (stereo partly drawn) [71-(1), (2R)-1-[3,5-Bis(trifluoromethyl)benzoyl]-2-(3,4-dimethylbenzyl)-4-[4-(3-methoxymethyl-3-methylmorpholino)-2-butynyl]piperazine dihydrochloride]
> 80	160 to 165	Cc1ccc(C[C@@H]2CN(CC#CCN3[C@@H](C)COC[C@@H]3C)CCN2C(=O)c2cc(C(F)(F)F)cc(C(F)(F)F)c2)cc1C.Cl.Cl [71-(3), (2R)-1-[3,5-Bis(trifluoromethyl)benzoyl]-2-(3,4-dimethylbenzyl)-4-[4-((3S,5S)-3,5-dimethylmorpholino)-2-butynyl]piperazine dihydrochloride]
> 80	85 to 95	COC[C@@H]1CN(CC#CCN2CCN(C(=O)c3cc(C(F)(F)F)cc(C(F)(F)F)c3)[C@H](Cc3ccc(C)c(C)c3)C2)CCO1.Cl.Cl [71-(5), (2R)-1-[3,5-Bis(trifluoromethyl)benzoyl]-2-(3,4-dimethylbenzyl)-4-[4-((2S)-2-methoxymethylmorpholino)-2-butynyl]piperazine dihydrochloride]
> 80	80 to 90	COC[C@H]1CN(CC#CCN2CCN(C(=O)c3cc(C(F)(F)F)cc(C(F)(F)F)c3)[C@H](Cc3ccc(C)c(C)c3)C2)CCO1.Cl.Cl [71-(6), (2R)-1-[3,5-Bis(trifluoromethyl)benzoyl]-2-(3,4-dimethylbenzyl)-4-[4-((2R)-2-methoxymethylmorpholino)-2-butynyl]piperazine dihydrochloride]
> 80	130 to 140	COC[C@H]1COCCN1C/C=C/CN1CCN(C(=O)c2cc(C(F)(F)F)cc(C(F)(F)F)c2)[C@H](Cc2ccc(C)c(C)c2)C1.Cl.Cl [73-(3), (2R)-1-[3,5-Bis(trifluoromethyl)benzoyl]-2-(3,4-dimethylbenzyl)-4-[(E)-4-((3S)-3-methoxymethylmorpholino)-2-butenyl]piperazine dihydrochloride]
> 80	150 to 160	Cc1ccc(C[C@@H]2CN(CCN3CCOC[C@@H]3CO)CCN2C(=O)c2cc(C(F)(F)F)cc(C(F)(F)F)c2)cc1C.Cl.Cl [80-(2), (2R)-1-[3,5-Bis(trifluoromethyl)benzoyl]-2-(3,4-dimethylbenzyl)-4-[2-((3S)-3-hydroxymethylmorpholino)ethyl]piperazine dihydrochloride]
> 80	90 to 100	COC[C@@H]1COCCN1CCN1CCN(C(=O)c2cc(C(F)(F)F)cc(C(F)(F)F)c2)[C@H](Cc2ccc(C)c(C)c2)C1.Cl.Cl [81-(4), (2R)-1-[3,5-Bis(trifluoromethyl)benzoyl]-2-(3,4-dimethylbenzyl)-4-[2-((3R)-3-methoxymethylmorpholino)ethyl]piperazine dihydrochloride]
